# Measurements published in US9624266B2, “Brachiatin D and process for production thereof” (COUNCIL OF SCIENTIFIC & INDUSTRIAL RESEARCH, priority 2013, dated 2017).
# Several values for one entry are separate records, joined by “and”; a condition that tells them apart may be missing. Equal values may be shown once. Non-standard residues stand in square brackets, D forms with d. Residues, ends and D or L forms follow the SMILES beside them. *: point of attachment. Aib = CC(C)(N)C(=O)O; X1 = CCC(C)C(CO)N*
# Key:
# [1] = test system: MCF-7; assay: MTT cytotoxicity assay, MCF-7 breast cell line; format: cell-based, human; conditions: for % growth inhibition: MCF-7, 1 μM
# Experimental: (§1) For Cytotoxic assay, the MTT assay is useful for measuring the effect of a wide range of compounds on the in vitro growth of either normal or cancer cell lines. The assay was set up in a 96-well, flat-bottomed polystyrene microtiter plate. 3-5000 cancer cells were suspended per well in appropriate growth medium, and the cells were added in duplicate wells (triplicates were preferred). It was preferable to add the cells to the required number of wells in the plate prior to adding the peptaibol. After the cells were added to the plate, it was placed on an incubator for overnight incubation. After overnight incubation, the peptaibol was added at defined concentrations of 10, 20 and 50 μM to each set of duplicate wells and incubated for 48 hrs in CO2 incubator. The peptaibol was dissolved in dimethyl sulfoxide (DMSO) for the final addition. After 48 hr incubation, the MTT stock solution (2.5 μg/ml) was diluted with an equal volume of tissue culture medium and 20 μl of this solution was added directly to each well with a multichannel pipette. The plates were returned to the incubator for a period of at least 4 h. After 4 hr incubation, the plates were centrifuged at 1000 rpm for 10 min at ambient temperature, followed by inversion of the plates and blotting of excess medium. 150 μl of working DMSO was added to solubilize the MTT formazan product. A standard micro plate reader with adjustable wavelength across the visible spectrum was used. The OD values at 570 nm obtained for each set of triplicates corresponding to a specific concentration of a peptaibol was then transferred into a spreadsheet program.
# Cytotoxicity assay was performed on a panel of cancer cell lines using fraction 4 (HF-4) as a test material. In order to determine their effect on cell proliferation, A-549 (lung cell line), HEP-2 (liver cell line), MCF-7 (breast cell line), monkey normal cell line (CV-1), OVCAR-5 (ovary cell line) and THP-1 (leukemia cell line) were treated at indicated concentration of 50 μM for 48 h. […]
# [2] = test system: PC-3; assay: MTT cytotoxicity assay, PC-3 prostate cell line; format: cell-based, human; conditions: PC-3, 10 μM
# Experimental: as §1, with “150 μl of working DMSO was added to solubilize the MTT formazan product.” left out, “The OD values at 570 nm obtained for each set of triplicates corresponding to a specific concentration of a peptaibol was then transferred into a spreadsheet program.” left out
# [3] = test system: IL-1β; assay: IL-1β in LPS stimulated cell culture supernatant (ELISA); format: cell-based, mouse; conditions: LPS 1 μg/ml, 24 h
# Experimental: (§2) For the estimation of pro-inflammatory cytokines (TNF-α, IL-1β and IL-6) in spleen cell culture supernatant, the splenocytes (2×10^6 cells) were seeded into a 96-well flat-bottom microtiter plate in 100 μl complete medium [RPMI 1640 supplemented with 12 mM HEPES (pH 7.1), 0.05 mM 2-mercaptoethanol, 100 IU/mL penicillin, 100 μg/mL streptomycin and 10% FCS]. Thereafter, variable does of purified peptaibol (brachiatin D) (0.001, 0.01 and 0.1 μM) were added giving a final volume of 200 μl. After subsequent stimulation with 1 μg/ml LPS for 24 h, the supernatants were harvested. The concentrations of TNF-α, IL-1β and IL-6 in culture supernatants were measured using mouse TNF-α, IL-1β and IL-6 ELISA kits (R&D Systems, USA), as per the instructions of the manufacturer
# as §2, with “For” for “For the”, “medium.” for “medium [RPMI 1640 supplemented with 12 mM HEPES (pH 7.1), 0.05 mM 2-mercaptoethanol, 100 IU/mL penicillin, 100 μg/mL streptomycin and 10% FCS].”, “brachiatin D” for “peptaibol (brachiatin D)”, “manufacturer. […]” for “manufacturer”
# [4] = test system: IL-6; assay: IL-6 in LPS stimulated cell culture supernatant (ELISA); format: cell-based, mouse; conditions: LPS 1 μg/ml, 24 h
# Experimental: as §2
# as §2, with “For” for “For the”, “medium.” for “medium [RPMI 1640 supplemented with 12 mM HEPES (pH 7.1), 0.05 mM 2-mercaptoethanol, 100 IU/mL penicillin, 100 μg/mL streptomycin and 10% FCS].”, “brachiatin D” for “peptaibol (brachiatin D)”, “manufacturer. […]” for “manufacturer”
# [5] = test system: TNF-α; assay: TNF-α in LPS stimulated cell culture supernatant (ELISA); format: cell-based, mouse; conditions: LPS 1 μg/ml, 24 h, dose dependent, 0.001-0.1 dose range
# Experimental: as §2
# as §2, with “For” for “For the”, “medium.” for “medium [RPMI 1640 supplemented with 12 mM HEPES (pH 7.1), 0.05 mM 2-mercaptoethanol, 100 IU/mL penicillin, 100 μg/mL streptomycin and 10% FCS].”, “brachiatin D” for “peptaibol (brachiatin D)”, “manufacturer. […]” for “manufacturer”
# [6] = test system: NO; assay: Inhibition of nitric oxide (nitrite) in LPS treated macrophages; format: cell-based, mouse
# Experimental: NO is a short-lived molecule. […] Large quantity of nitrite is produced by macrophage when stimulated with LPS. But when cells were treated with brachiatin D, it was observed that brachiatin D inhibited LPS stimulated production of nitrite (p<0.001 at 0.001 μM dose).
# [7] = test system: MiaPaCa-2; assay: MTT cytotoxicity assay, MiaPaCa-2 pancreatic cell line; format: cell-based, human; conditions: MiaPaCa-2, 10 μM
# Experimental: as §1, with “150 μl of working DMSO was added to solubilize the MTT formazan product.” left out, “The OD values at 570 nm obtained for each set of triplicates corresponding to a specific concentration of a peptaibol was then transferred into a spreadsheet program.” left out
# [8] = test system: A-549; assay: cells; format: cell-based, human; conditions: for % age growth inhibition: A-549, 10 μM, 10 µM; for % growth inhibition: A-549, 20 μM, 20 µM
# Experimental: as §1
# (§3) Cytotoxicity assay was performed on a panel of cancer cell lines using fraction 4 (HF-4) as a test material. In order to determine their effect on cell proliferation, A-549 (lung cell line), HEP-2 (liver cell line), MCF-7 (breast cell line), monkey normal cell line (CV-1), OVCAR-5 (ovary cell line) and THP-1 (leukemia cell line) were treated at indicated concentration of 50 μM for 48 h. […] 5-flurouracil and adriyamycin were used as the positive controls; 5-flurouracil inhibited the growth of lung and leukemia cancer cell lines upto 75% and 83% respectively. Moreover adriyamycin used at 1 μM could inhibit the proliferation of MCF-7 cells upto 73%.
# (§4) Cytotoxicity assay based on MTT was performed on a panel of cancer cell lines using brachiatin D as a test material. […] 5-flurouracil and adriyamycin were used as the positive controls; 5-flurouracil inhibited the growth of lung and leukemia cancer cell lines upto 73%, […] 88% respectively. Adriyamycin used at 1 μM could inhibit the proliferation of MCF-7 cells upto 77%.
# [9] = test system: THP-1; assay: cells; format: cell-based, human; conditions: for % growth inhibition: THP-1, 20 μM, 20 µM
# Experimental: as §1, §3, §4
# [10] = test system: HOP-62; assay: MTT cytotoxicity assay, HOP-62 lung cell line; format: cell-based, human
# Experimental: as §1, §4
# [11] = test system: lymphocyte proliferation; assay: Lymphocyte proliferation assay (splenocytes, MTT); format: cell-based, mice; conditions: concentration range 0.001 μM-10 μM
# Description: For Lymphocyte Proliferation Assay, the organic crude extract and then the purified peptaibol was taken for lymphocyte proliferation assay to check their activity by the following procedure. The mice spleen was collected from a live animal after sacrificing it under aseptic conditions in HBSS. The spleen was then minced using a pair of scissors and passed through a fine steel mesh to obtain a homogeneous cell suspension and the erythrocytes were lysed with ammonium chloride (0.8%, w/v). After centrifugation (380×g at 4° C. for 10 min), the pelleted cells were washed three times with PBS and resuspended in complete medium [RPMI 1640 supplemented with 12 mM HEPES (pH 7.1), 0.05 mM 2-mercaptoethanol, 100 IU/mL penicillin, 100 µg/mL streptomycin and 10% FCS]. The cell number was counted with a haemocytometer by the trypan blue dye exclusion technique. Cell viability exceeded 95%.
# Splenocytes (2×10^6 cells) were then seeded into a 96-well flat-bottom microtiter plate in 100 μl complete medium. Thereafter, variable doses of the test material along with LPS (1 μg/ml) to stimulate B cell proliferation were added giving a final volume of 200 μl. Test materials used in this assay were variable doses of the purified peptaibol (0.001, 0.01 and 0.1 μM). […] 200 μl of DMSO (192 μl DMSO with 8 μl IN HCl) was added to each well, and the absorbance was determined in an ELISA reader at 570 nm after 15 min. […]
smiles,measurement,setting,value
COc1cccc2c1C(=O)c1c(O)c3c(c(O)c1C2=O)C[C@@](O)(C(=O)CO)C[C@@H]3O[C@H]1C[C@H](N)[C@H](O)[C@H](C)O1 [Adriyamycin],% growth inhibition,[1],73%
same,% growth inhibition,[1]; 1 µM,≤ 73%
"CCC(C)C(CO)NC(=O)C1CCCN1C(=O)C(CC(C)C)NC(=O)C(CC(N)=O)NC(=O)C(C)(C)NC(=O)C1CCCN1C(=O)C(C)(C)NC(=O)C(CC(C)C)NC(=O)C(C)(C)NC(=O)C(CC(N)=O)NC(=O)C(C)(C)NC(C)=O (stereo not drawn) [Brachiatin D, AcAib-Asn-Aib-Leu-Aib-Pro-Aib-Asn-Leu-Pro-Ileuol] (Ac-[Aib]N[Aib]L[Aib]P[Aib]NLP-X1; configuration not given here)",% age growth inhibition,[2],100%
same,% age growth inhibition,"[1]; MCF-7, 10 μM",100%
same,effect on LPS induced IL-1β,[3],inhibited
same,effect on LPS induced IL-6,[4],inhibited
same,inhibition of TNF-α production,[5],up to 42%
same,LPS stimulated production of nitrite,"[6]; 0.001 μM dose, p<0.001",inhibited
same,NO production,"[6]; 0.1 μM, p<0.05",Marginal increase
same,% age growth inhibition,[7],100%
same,% age growth inhibition,[8],63%
same,% age growth inhibition,[8]; listed as brachiatin D,≤ 63%
same,% growth inhibition,[8],96%
same,% growth inhibition,[8]; listed as brachiatin D,> 95%
same,% age growth inhibition,"[9]; THP-1, 10 μM",56%
same,% growth inhibition,[9],77%
same,% growth inhibition,[9]; listed as brachiatin D,> 75%
same,sensitivity of the cell line to cytotoxic effects,[10]; HOP-62,much resistance
same,% age growth inhibition,"[10]; HOP-62, 10 μM",21%
same,% age growth inhibition,"[10]; HOP-62, 20 μM",35%
same,activity against lymphocyte proliferation,[11],good activity
"O=c1[nH]cc(F)c(=O)[nH]1 [5-Fluorouracil, reference compound]",% growth inhibition,[8],75% and 73%
same,inhibition at 20 µM,"[8]; Homo sapiens, A549, A-549, 20 μM, read-out: % growth inhibition",≤ 75%
same,inhibition at 20 µM,"[9]; Homo sapiens, THP-1, THP-1, 20 μM, read-out: % growth inhibition",≤ 83%
same,% growth inhibition,[9],83% and 88%
same,% age growth inhibition,"[10]; HOP-62, 20 μM, 20 µM",81%
same,inhibition at 20 µM,"[10]; Homo sapiens, HOP-62, HOP-62, 20 μM, read-out: % age growth inhibition",≤ 81%
